Measurements: US7169592B2, “Producing optically active amino compounds” (Kaneka Corporation, priority 1997, dated 2007)
Marks after values point to notes of the source that are not given here.

Tests used:
[1] = system: purified enzyme protein (transaminase); assay: Reactivity of purified transaminase to carbonyl compounds with (R)-1-phenylethylamine as amino group donor; format: biochemical, Arthrobacter species KNK168; settings: for Relative Activity: 25 mM carbonyl compound, 25 mM (R)-1-phenylethylamine, pH 8.5, 30° C., pyruvic acid = 100; for Reactivity as carbonyl compound (in words): (R)-1-phenylethylamine as amino group donor
Experimental: Using the purified enzyme protein obtained in Example 9, reactivities to various carbonyl compounds using (R)-1-phenylethylamine as an amino group donor were evaluated. A 50 μl solution of the purified enzyme protein was added to 200 μl substrate solution [0.1 M Tris-HCl buffer (pH 8.5), 25 mM (R)-1-phenylethylamine, 0.1 mM pyridoxal phosphate, and 25 mM various carbonyl compounds], and the mixture was reacted at 30° C. for 1 to 3 hours in tube. The reaction tube was transferred into boiling water to stop the reaction, and thereafter, the reaction mixture was diluted five-folds with methanol. This diluted solution was analyzed by high-performance liquid chromatography using a fine pack C18-5 column and using methanol-water (20:80) as an eluent to quantitate acetophenone formed by the reaction.

[2] = system: Arthrobacter species KNK168 strain; assay: Surfactant and fatty acid additives in whole-cell transamination; format: cell-based; settings: for (R)-DMA Formed: 30° C., pH 8.5, 20 hours; for Effect of additive on yield of reaction product (in words): whole cells
Experimental: The cells obtained by culturing the Arthrobacter species KNK168 strain in the R medium were suspended in a reaction mixture containing 2% 1-(3,4-dimethoxyphenyl)-2-propanone and 4% (RS)-1-phenylethylamine. The surfactants and fatty acids shown in Table 6 were added thereto, and the mixture was reacted at 30° C. at a pH of 8.5 for 20 hours.

[3] = system: transaminase (intracellular enzyme); assay: Activity of the transaminase (intracellular enzyme) on typical substrates of ω-aminotransferases; format: biochemical, Arthrobacter sp. KNK168
[4] = system: Arthrobacter species KNK168 strain; assay: Amino group donors in whole-cell transamination of 1-(3,4-dimethoxyphenyl)-2-propanone; format: cell-based
Experimental: The cultured cells were harvested by centrifugation, and the harvested cells were suspended in a reaction mixture (pH 8.5) containing 1% 1-(3,4-dimethoxyphenyl)-2-propanone, 0.1% Triton X-100, and 1% an amino group donor shown in Table 5. The mixture was reacted at 35° C. for 20 hours.

[5] = system: Transaminase of Present Invention (purified enzyme); assay: Reactivity of purified transaminase to amino compounds (amino group donors) with pyruvic acid as acceptor; format: biochemical, Arthrobacter sp. KNK168; set-up: Substrate Specificity, relative activity: concentration or dose not given beside the values; settings: for Relative Activity: amino compound 40 mM in substrate solution, pyruvic acid acceptor, pH 8.3, 30° C., 1 hour, (R)-1-phenylethylamine = 100; for Reactivity as amino compound (in words): pyruvic acid as amino acceptor
Description: (§1) The differences with the ω-amino acid transaminase derived from Pseudomonas sp. F-1 (Agric. Biol. Chem., 42, 2363–2367 (1978), Agric. Biol. Chem., 43, 1043–1048 (1979), J. Biol. Chem., 258, 2260–2265 (1983)) which have been well studied among the ω-amino acid transaminases, and with the benzylamine transaminase of Okada et al. (Japanese Patent Laid-Open No. Hei 6-178685) are summarized and shown in Table 2. In a case of the transaminase reaction in the present invention, the data of the purified enzyme are used, and in cases of those by other two enzymes, the data of the purified enzymes which are disclosed in each of the literature publication and laid-open patent publication are used. Pyruvic acid is used as an amino group acceptor in all cases.
Using the purified enzyme protein obtained in Example 9, reactivities to various amino compounds when using pyruvic acid as an amino acceptor were evaluated. A 150 μl solution of the purified enzyme protein solution diluted ten-folds was added to a 150 μl substrate solution [0.1 M potassium phosphate buffer (pH 8.3), 40 mM pyruvic acid, 0.1 mM pyridoxal phosphate, and 40 mM various amino compounds]. The components were reacted at 30° C. for 1 hour. The reaction tube was transferred into boiling water to stop the reaction, and thereafter, a part of the reaction mixture was diluted five-folds. Ten μl 0.1 M boric acid buffer (pH 8.0) and a 20 μl ethanol solution of 80 mM 4-fluoro-7-nitro-2,1,3-benzoxadiazole (NBD-F) were added to the 10 μl above-mentioned diluted reaction mixture. The resulting mixture was reacted at 60° C. for 1 minute, and thereafter, the resulting mixture was ice-cooled, and 460 μl 5 mM HCl was added thereto. This reaction mixture was analyzed by high-performance liquid chromatography using a fine pack C18-5 column (manufactured by Nippon Bunko) I and using 0.1 M potassium phosphate buffer (pH 6.5) and CH3CN (90:10) as an eluent to detect formation of NBD-Alanine with an excitation wavelength of 470 nm and a detection wave of […]. The results thereof are shown in Table 8 in terms of relative activity in the case of using […] as a substrate.

[6] = system: Transaminase of Present Invention (purified enzyme); assay: Influence of reaction inhibitors on purified transaminase; format: biochemical, Arthrobacter sp. KNK168; settings: inhibitor 1 mM; without addition = 100
Description: as §1

[7] = biological target: T1, ω-amino acid transaminase (Pseudomonas putida, UniProt P28269); settings: purified enzyme, literature; pyruvic acid as amino group acceptor; cited from earlier work
T1 sequence (P28269 1-449): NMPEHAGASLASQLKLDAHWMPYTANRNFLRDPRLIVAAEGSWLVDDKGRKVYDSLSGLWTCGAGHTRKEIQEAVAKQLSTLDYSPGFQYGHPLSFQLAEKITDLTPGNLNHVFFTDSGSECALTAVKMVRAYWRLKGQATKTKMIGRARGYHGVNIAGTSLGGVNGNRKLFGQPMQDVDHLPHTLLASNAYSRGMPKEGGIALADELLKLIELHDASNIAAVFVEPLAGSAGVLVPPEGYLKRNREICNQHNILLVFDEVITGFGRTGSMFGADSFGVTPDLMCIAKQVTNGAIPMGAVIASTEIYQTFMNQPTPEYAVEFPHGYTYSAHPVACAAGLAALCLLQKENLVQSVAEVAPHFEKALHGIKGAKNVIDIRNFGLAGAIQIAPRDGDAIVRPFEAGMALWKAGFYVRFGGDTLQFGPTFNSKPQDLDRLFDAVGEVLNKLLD

[8] = amino group acceptor 2-ketoglutaric acid, (R)-1-phenylethylamine/pyruvic acid = 100 (control)
[9] = 1% amino group donor, 1% 1-(3,4-dimethoxyphenyl)-2-propanone, 0.1% Triton X-100, pH 8.5, 35° C., 20 hours
[10] = amino group acceptor pyruvic acid, (R)-1-phenylethylamine = 100 (control)
[11] = additive 0.1%, no addition 28.1

## CC(=O)COc1ccccc1 [Phenoxy-2-propanone]
[1]
  Relative Activity: 83%
  Reactivity as carbonyl compound (in words): favorable reactivities

## CCCCC/C=C\C/C=C\CCCCCCCC(=O)O [Linoleic Acid]
[2]; additive 2.9%
  (R)-DMA Formed: 45.1%
[2]
  Effect of additive on yield of reaction product (in words): yield of the reaction product was increased

## CCC(=O)Cc1ccccc1 [1-Phenyl-2-butanone]
[1]
  Relative Activity: 1%

## NCCCC(N)C(=O)O (racemic) [DL-Ornithine]
[3]; [8]
  Relative Activity: 0%

## CC(N)CCc1ccccc1 (racemic) [(RS)-2-Amino-4-phenylbutane]
[4]; [9]
  (R)-DMA Formed: 27.6%

## CC(=O)C(C)=O [Diacetyl]
[1]
  Relative Activity: 10%

## CC(=O)c1ccncc1 [4-Acetylpyridine]
[1]
  Relative Activity: 27%

## NCCC(N)C(=O)O (stereo not drawn) [α-2,4-Diaminobutyric acid]
[3]; [10]
  Relative Activity: 0%

## O=CC(=O)O [Glyoxylic acid]
[1]
  Relative Activity: 4%

## CCOC(=O)CC(C)=O [Ethyl acetoacetate]
[1]
  Relative Activity: 4%

## CC(=O)c1cccnc1 [3-Acetylpyridine]
[1]
  Relative Activity: 8%

## NC(=O)CCC(N)C(=O)O (racemic) [DL-Glutamine]
[3]; [8]
  Relative Activity: 0%

## CCC(=O)C(=O)O [2-Ketobutyric acid]
[1]
  Relative Activity: 7%

## CCOC(=O)C(C)=O [Ethyl pyruvate]
[1]
  Relative Activity: 27%

## CC(N)CO (racemic) [(RS)-2-Amino-1-propanol]
[4]; [9]
  (R)-DMA Formed: 9.6%

## C[C@@H](N)c1cccc2ccccc12 [(R)-1-Naphthylethylamine]
[4]; [9]
  (R)-DMA Formed: 34.2%

## NC(CO)Cc1ccccc1 (racemic) [(RS)-2-Amino-3-phenylpropanol]
[4]; [9]
  (R)-DMA Formed: 22.7%

## CC(N)c1ccccc1 (racemic) [(RS)-1-Phenylmethylamine]
[4]; [9]
  (R)-DMA Formed: 3.1%

## C[C@@H](N)c1ccccc1 [(R)-1-Phenylethylamine]
[3]
  Activity on the substance as amino group donor (in words): especially high activity
[3]; [10]
  Relative Activity: 100* %
[5]
  Relative Activity: 100%

## CC(=O)c1ccco1 [2-Acetylfuran]
[1]
  Relative Activity: 2%

## N[C@H](CO)Cc1ccccc1 [L-Phenylalaninol]
[5]
  Relative Activity: 0.8%

## CC(=O)c1nccs1 [2-Acetylthiazole]
[1]
  Relative Activity: 10%

## CC(=O)Oc1cccnc1 [3-Acetoxypyridine]
[1]
  Relative Activity: 1%

## CCCCCCCCCCCCOS(=O)(=O)[O-].[Na+] [Sodium dodecyl sulfate]
[2]; [11]
  (R)-DMA Formed: 45.3%
[2]; additive 0.5%
  (R)-DMA Formed: 42.2%
[2]; additive 1.0%
  (R)-DMA Formed: 46.3%
[2]; additive 2.0%
  (R)-DMA Formed: 50.1%
[2]; additive 3.0%
  (R)-DMA Formed: 51.9%
[2]; additive 4.0%
  (R)-DMA Formed: 53.1%
[2]
  Effect of additive on yield of reaction product (in words): yield of the reaction product was increased

## N[C@@H](CO)c1ccccc1 [(R)-2-Phenylglycinol]
[5]
  Relative Activity: 0%

## CC(=O)c1cnccn1 [2-Acetylpyrazine]
[1]
  Relative Activity: 17%

## CCCCCCC(C)N (stereo not drawn) [1-Methylheptylamine]
[5]
  Relative Activity: 47%

## CCCCCCCC/C=C\CCCCCCCC(=O)O [Oleic Acid]
[2]; additive 2.9%
  (R)-DMA Formed: 44.9%
[2]
  Effect of additive on yield of reaction product (in words): yield of the reaction product was increased

## NCCS(=O)(=O)O [Taurine]
[3]; [8]
  Relative Activity: 0%

## N[C@H](CO)c1ccccc1 [(S)-2-Phenylglycinol]
[5]
  Relative Activity: 180%
  Reactivity as amino compound (in words): favorable reactivities

## NCCCC(N)C(=O)O (stereo not drawn) [2,5-Diaminovalerate]
[3]; [8]
  Relative Activity: 2%

## CCC(C)N (stereo not drawn) [1-Methylpropylamine]
[5]
  Relative Activity: 1.2%

## NC1C=CC=C(C(=O)O)C1 (racemic) [Gabaculine]
[6]
  Relative activity with inhibitor: 24%

## Triton X-100
[2]; [11]
  (R)-DMA Formed: 31.6%
[2]; additive 0.5%
  (R)-DMA Formed: 34.0%

## COCC(C)=O [1-Methoxy-2-propanone]
[1]
  Relative Activity: 16%

## NC(=O)CC(N)C(=O)O (racemic) [DL-Asparagine]
[3]; [8]
  Relative Activity: 0%

## COc1ccc(CC(C)=O)cc1OC [1-(3,4-Dimethoxyphenyl)-2-propanone]
[1]
  Relative Activity: 7%

## CC(=O)c1cccs1 [2-Acetylthiophene]
[1]
  Relative Activity: 1%

## CCOC(=O)CC(=O)c1ccccc1 [Ethyl benzoyl acetate]
[1]
  Relative Activity: 2%

## CC(=O)CCc1ccccc1 [Benzyl acetone]
[1]
  Relative Activity: 3%

## COc1ccc(CCC(C)=O)cc1 [4-(4-Methoxyphenyl)-2-butanone]
[1]
  Relative Activity: 7%

## 2-Decane
[1]
  Relative Activity: 3%

## NC(CO)c1ccccc1 (racemic) [(RS)-2-Amino-2-phenylethanol]
[4]; [9]
  (R)-DMA Formed: 48.4%

## O=C1CCCc2ccccc21 [1-Tetralone]
[1]
  Relative Activity: 1%

## CC(N)CCc1ccccc1 (stereo not drawn) [3-Aminophenylbutane]
[5]
  Relative Activity: 84%
  Reactivity as amino compound (in words): favorable reactivities

## CC(=O)C(=O)O [Pyruvic acid]
[1]
  Relative Activity: 100%

## O=C(O)CC(=O)C(=O)O [Oxalacetic acid]
[1]
  Relative Activity: 87%
  Reactivity as carbonyl compound (in words): favorable reactivities

## O=CCc1ccccc1 [Phenyl acetaldehyde]
[1]
  Relative Activity: 13%

## CC(CN)c1ccccc1 (racemic) [(RS)-1-Amino-2-phenylpropane]
[4]; pH 8.5
  (R)-DMA Formed: 1.8%

## CCCCCCCCCCCCCCCC[N+](C)(C)C.[Br-] [Cetyl trimethyl ammonium bromide]
[2]; [11]
  (R)-DMA Formed: 29.1%

## CC(=O)c1ccccn1 [2-Acetylpyridine]
[1]
  Relative Activity: 19%

## NCCCCC(N)C(=O)O (racemic) [DL-Lysine]
[3]; [8]
  Relative Activity: 0%

## C[C@H](N)c1ccccc1 [(S)-1-Phenylethylamine]
[5]
  Relative Activity: 0%

## CC(N)CC(=O)O (racemic) [DL-3-Aminobutyric acid]
[5]
  Action of the transaminase on the substance (in words): does not act on
[5]; purified enzyme, pyruvic acid as amino group acceptor
  Substrate Specificity, relative activity: 0%
[7]
  Substrate Specificity, relative activity: 96%

## CCCCC(C)CN (stereo not drawn) [2-Methylhexylamine]
[5]
  Relative Activity: 37%
